Columns and labels:
[1] = target: T1, M4 muscarinic receptor (Homo sapiens, UniProt P08173); test: Functional mobilization of intracellular calcium (FLIPR, Fluo-3), M4-CHO cells; type: cell-based; details: compound nos. 1-454; for Emax: 100% efficacy is the maximum response obtained with the Carbachol control, read-out: M4 Efficacy; for M4 Activity: M4-CHO cells, calcium mobilization
T1 construct: expressed in transfected cells; host or cells: CHO cells (M4-CHO, under puromycin, zeocin and blasticidin selection)
T1 sequence (P08173 1-479): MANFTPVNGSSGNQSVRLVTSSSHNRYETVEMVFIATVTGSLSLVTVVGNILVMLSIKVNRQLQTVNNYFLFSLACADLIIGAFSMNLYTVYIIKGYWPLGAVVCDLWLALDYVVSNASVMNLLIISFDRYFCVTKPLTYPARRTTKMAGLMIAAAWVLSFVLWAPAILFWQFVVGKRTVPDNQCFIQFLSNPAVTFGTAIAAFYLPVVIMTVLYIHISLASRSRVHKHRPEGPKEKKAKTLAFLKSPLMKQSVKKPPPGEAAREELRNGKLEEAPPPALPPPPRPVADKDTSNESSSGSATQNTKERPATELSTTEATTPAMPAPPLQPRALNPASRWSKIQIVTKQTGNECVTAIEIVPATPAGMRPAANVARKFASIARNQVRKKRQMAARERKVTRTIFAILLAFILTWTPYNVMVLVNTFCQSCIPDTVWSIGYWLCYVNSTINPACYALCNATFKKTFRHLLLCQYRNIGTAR
Protocol: (§1) CHO cells expressing muscarinic receptors (M1 to M5) are grown as monolayers in tissue culture flasks at 37° C. in a humidified atmosphere containing 5% CO2 and passaged every 3-5 days. The growth media is Dulbecco's modified eagles medium (DMEM, Gibco Cat#12430-054), containing 25 mM Hepes and supplemented with Fetal Bovine Serum (Hyclone, cat# SH30071.03), 0.1 mM of MEM non-essential amino acids (GIBCO, Cat# 11140-050), 1 mM MEM Sodium Pyruvate (GIBCO Cat# 11360-070) and 100 units/ml of Penicillin G and 100 μg/ml of Streptomycin (GIBCO Cat# 15140-122). The recombinant muscarinic receptor cell lines are grown under antibiotic pressure with media containing 25 μm/ml zeocin and 500 μg/ml G418 (M1-CHO), 4 μg/ml puromycin, 50 μg/ml zeocin and 2.5 μm/ml blasticidin (M2 and M4-CHO) or 50 μg/ml zeocin and 4 μg/ml puromycin (M3 and M5-CHO).
(§2) Cells are harvested at 80-90% confluence using Versene (GIBCO Cat# 15040-066), collected by centrifugation and seeded 18-24 hrs prior to running the calcium assay at a density of 5,000-10,000 cells/well in […], clear-bottomed 384-well plates (BD Biocoat, poly-D-lysine, Cat#356663). The day of the experiment, the cells are washed with a plate washer (Bioteck Instruments, ELX 405) using bath1 buffer (140-mM NaCl, 4.5-mM KCL, 2-mM CaCl2, 1-mM MgCl2, 10-mM Hepes-Na, 10-mM Glucose, pH 7.4, with NaOH) containing 1 mM Probenecid. Next, the calcium dye Fluo-3 (25 μl/well of Fluo-3 μM at 4 μM, Molecular Probes F-1241, in Bath 1 buffer containing 1 mM Probenecid) is added to the 25 μl of Bath 1 remaining in each well after the plate wash and the dye is loaded at 37° C. in the tissue culture incubator for 60-90 min. The fluorescent dye is removed using the plate washer with Bath 1 containing 1 mM Probenecid, leaving 25 μl/well of this solution after the wash. Alternatively, cells can be loaded with the calcium indicator from Molecular Devices (Calcium 3 Assay Reagents, Cat # R7181) adding 5 μl of a 5× solution dye in Bath 1 containing 1 mM Probenecid (10 ml per dye flask cat# R7182 to generate a solution 20×) to 20 μl of the same buffer. After loading for 60 min, the experiment can be run without having to remove the dye.
(§3) Compounds are prepared at a 2× fold concentration in a 96-well plate (round bottom, Costar Corning cat# 3656), by reconstituting the pre-spotted compounds in bath 1 containing 1 mM probenecid. The final concentration DMSO is 0.5%, and the amount of DMSO is normalized across the assay plate. To determine an agonist action of the compounds on muscarinic receptors, the reconstituted compounds are added (25 μl compound/well) to the cell assay plate (containing 25 μl/well) using the multi-channel robotic system of the FLIPR 3 Instrument (Molecular Devices, Sunnyvale, Calif.). To determine a functional inhibitory action of the compounds on muscarinic receptors, the reconstituted compounds are added (25 μl compound/well) to the assay plate and pre-incubated for 15 min prior to adding 25 μl of Carbachol at 3× the EC80 for each muscarinic subtype. Alternatively, the compounds can be co-applied simultaneously with the agonist. In both assay modes, the fluorescence is recorded for 60 sec (excitation wavelength is […] and emission wavelength 540 nm) using the FLIPR 3 instrument.
(§4) The potency, efficacy and selectivity of the muscarinic compounds were evaluated by screening the compound activity across the whole family (M1 to M5 cells). Compounds were also screened for activity on other proteins such as other GPCRs and ion channels to determine selectivity on M4 receptors.

[2] = target: T2, M1 muscarinic receptor (Homo sapiens, UniProt P11229); test: Functional mobilization of intracellular calcium (FLIPR, Fluo-3), M1-CHO cells; type: cell-based; details: compound nos. 1-454; for Emax: 100% efficacy is the maximum response obtained with the Carbachol control, read-out: M1 Efficacy; for M1 Activity: M1-CHO cells, calcium mobilization
T2 construct: expressed in transfected cells; host or cells: CHO cells (M1-CHO, under zeocin and G418 selection)
T2 sequence (P11229 1-460): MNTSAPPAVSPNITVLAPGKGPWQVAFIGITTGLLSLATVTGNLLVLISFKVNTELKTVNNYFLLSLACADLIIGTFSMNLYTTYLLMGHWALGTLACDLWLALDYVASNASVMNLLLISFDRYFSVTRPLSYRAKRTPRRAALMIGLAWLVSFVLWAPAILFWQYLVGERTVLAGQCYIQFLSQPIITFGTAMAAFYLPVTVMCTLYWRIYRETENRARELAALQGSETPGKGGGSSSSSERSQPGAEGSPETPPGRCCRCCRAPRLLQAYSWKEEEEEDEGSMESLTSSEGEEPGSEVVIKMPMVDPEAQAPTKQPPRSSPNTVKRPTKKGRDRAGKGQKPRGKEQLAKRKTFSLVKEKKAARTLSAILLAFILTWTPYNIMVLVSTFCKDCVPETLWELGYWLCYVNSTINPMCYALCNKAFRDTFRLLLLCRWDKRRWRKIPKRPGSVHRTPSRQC
Protocol: as §1, §2, §3, §4

Compound | Emax [1] | M4 Activity [1] | Emax [2] | M1 Activity [2]
Clc1ccc2c(c1)C1(CCN(C3C[C@@H]4CCC3C4)CC1)CO2 (stereo in doubt) [compound 1, 1′-((1S,2R,4R)-bicyclo[2.2.1]heptan-2-yl)-5-chloro-2H-spiro[benzofuran-3,4′-piperidine]] | > 70% | ++ (activity was measured to be between 0.1 μM and 4.0 μM) | 65 to 85% | ++ (activity was measured to be between 0.7 μM and 3.0 μM)
Clc1ccc2c(c1)C1(CCO2)CCN(CC2CC3C=C[C@H]2C3)CC1 (stereo in doubt) [compound 64, 1′-((1R,2R,4R)-bicyclo[2.2.1]hept-5-en-2-ylmethyl)-6-chlorospiro[chroman-4,4′-piperidine]] | < 55% | ++ (activity was measured to be between 0.1 μM and 4.0 μM) | < 65% | +++ (activity was measured to be less than or equal to 0.7 μM)
CC(=O)NC1CC2(CCN(C3CCCCC3)CC2)c2ccccc21 (stereo not drawn) [compound 2] | < 55% | + (activity was measured to be greater than or equal to 4.0 μM) | < 65% | + (activity was measured to be greater than or equal to 3.0 μM)
Cc1ccc2c(c1)C1(CCN(CC3CC4C=CC3C4)CC1)CN2 (stereo not drawn) [compound 3] | 55 to 70% | ++ (activity was measured to be between 0.1 μM and 4.0 μM) | 65 to 85% | +++ (activity was measured to be less than or equal to 0.7 μM)
CC(=O)N[C@H]1CC2(CCN(C3C4CC5CC(C4)CC3C5)CC2)c2ccccc21 (stereo partly drawn) [compound 4] | < 55% | + (activity was measured to be greater than or equal to 4.0 μM) | < 65% | +++ (activity was measured to be less than or equal to 0.7 μM)
Clc1ccc2c(c1)C1(CCN(C3CCCCC3)CC1)CO2 [compound 5] | > 70% | +++ (activity was measured to be less than or equal to 0.1 μM) | 65 to 85% | +++ (activity was measured to be less than or equal to 0.7 μM)
CCOC(=O)N1CCC(N2CCC3(CC2)CN(C(C)=O)c2ccc(-c4cccc(C)c4)cc23)CC1 [compound 6] | 55 to 70% | ++ (activity was measured to be between 0.1 μM and 4.0 μM) | 65 to 85% | +++ (activity was measured to be less than or equal to 0.7 μM)
O=C1Nc2ccccc2C12CCN(CC1CC3C=CC1C3)CC2 (stereo not drawn) [compound 7] | > 70% | ++ (activity was measured to be between 0.1 μM and 4.0 μM) | 65 to 85% | +++ (activity was measured to be less than or equal to 0.7 μM)
CC(=O)NC1CC2(CCN(C3CC4CCC(C4)C3)CC2)c2ccccc21 (stereo not drawn) [compound 8] | 55 to 70% | ++ (activity was measured to be between 0.1 μM and 4.0 μM) | < 65% | ++ (activity was measured to be between 0.7 μM and 3.0 μM)
CCOC(=O)N1C2CCC1CC(N1CCC3(CC1)CN(C(C)=O)c1ccc(C)cc13)C2 (stereo not drawn) [compound 9] | 55 to 70% | + (activity was measured to be greater than or equal to 4.0 μM) | 65 to 85% | +++ (activity was measured to be less than or equal to 0.7 μM)
CCOC(=O)N1CCC(N2CCC3(CC2)CN(C(C)=O)c2ccc(-c4ccc(NC(C)=O)cc4)cc23)CC1 [compound 10] | 55 to 70% | ++ (activity was measured to be between 0.1 μM and 4.0 μM) | 65 to 85% | ++ (activity was measured to be between 0.7 μM and 3.0 μM)
C=Cc1ccc2c(c1)C1(CCN(C3CCN(C(=O)OCC)CC3)CC1)CN2C(C)=O [compound 11] | < 55% | + (activity was measured to be greater than or equal to 4.0 μM) | < 65% | + (activity was measured to be greater than or equal to 3.0 μM)
CCC(=O)CCN1CC2(CCN(C[C@@H]3C[C@H]4C=C[C@H]3C4)CC2)c2cc(F)ccc21 [compound 12] | < 55% | ++ (activity was measured to be between 0.1 μM and 4.0 μM) | < 65% | +++ (activity was measured to be less than or equal to 0.7 μM)
Fc1ccc2c(c1)C1(CCN(CC3CCC4CCC3C4)CC1)CN2 (stereo not drawn) [compound 13] | < 55% | + (activity was measured to be greater than or equal to 4.0 μM) | 65 to 85% | ++ (activity was measured to be between 0.7 μM and 3.0 μM)
CC(=O)N1CC2(CCN(CC3CCN(C(=O)O[C@@H]4CCOC4)CC3)CC2)c2cc(F)ccc21 [compound 14] | > 70% | +++ (activity was measured to be less than or equal to 0.1 μM) | 65 to 85% | +++ (activity was measured to be less than or equal to 0.7 μM)
CS(=O)(=O)N1CC2(CCN(C3CC4CCC(C3)N4C(=O)O[C@@H]3CCOC3)CC2)c2cc(F)ccc21 (stereo partly drawn) [compound 16] | 55 to 70% | +++ (activity was measured to be less than or equal to 0.1 μM) | 65 to 85% | +++ (activity was measured to be less than or equal to 0.7 μM)
CCOC(=O)N1CCC(N2CCC3(CC2)CN(C(=O)C2CCCC2)c2ccc(F)cc23)CC1 [compound 17] | 55 to 70% | ++ (activity was measured to be between 0.1 μM and 4.0 μM) | < 65% | ++ (activity was measured to be between 0.7 μM and 3.0 μM)
c1ccc2c(c1)CCC21CCN(CC2CCOCC2)CC1 [compound 18] | > 70% | ++ (activity was measured to be between 0.1 μM and 4.0 μM) | < 65% | +++ (activity was measured to be less than or equal to 0.7 μM)

From patent US7858635B2 (priority 2005, dated 2010)
